For data set [1] the following is noted: rcm bond.
In another data set the target is T1, Human Calpain 1/NS1 (Homo sapiens, UniProt P07384).
T1 sequence (P07384 1-714): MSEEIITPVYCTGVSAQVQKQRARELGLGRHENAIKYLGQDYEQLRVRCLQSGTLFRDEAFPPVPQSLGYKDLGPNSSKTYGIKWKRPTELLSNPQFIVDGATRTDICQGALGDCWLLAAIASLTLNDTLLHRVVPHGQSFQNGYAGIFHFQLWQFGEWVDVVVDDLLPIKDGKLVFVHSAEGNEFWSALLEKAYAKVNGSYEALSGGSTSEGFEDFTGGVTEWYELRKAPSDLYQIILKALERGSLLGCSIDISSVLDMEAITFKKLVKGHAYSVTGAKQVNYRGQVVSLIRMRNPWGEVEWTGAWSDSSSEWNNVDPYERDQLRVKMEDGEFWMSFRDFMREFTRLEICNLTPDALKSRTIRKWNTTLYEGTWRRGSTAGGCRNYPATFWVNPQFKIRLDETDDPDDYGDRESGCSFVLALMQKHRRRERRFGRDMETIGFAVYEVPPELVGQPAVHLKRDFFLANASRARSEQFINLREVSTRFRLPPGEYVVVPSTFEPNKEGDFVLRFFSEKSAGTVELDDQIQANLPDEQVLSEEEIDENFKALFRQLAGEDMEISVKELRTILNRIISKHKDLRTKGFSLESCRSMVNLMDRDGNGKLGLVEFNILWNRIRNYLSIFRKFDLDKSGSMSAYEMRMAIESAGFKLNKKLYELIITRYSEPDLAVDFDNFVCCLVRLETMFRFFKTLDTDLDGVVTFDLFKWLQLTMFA
T1 sequence (P04632 1-268 partner): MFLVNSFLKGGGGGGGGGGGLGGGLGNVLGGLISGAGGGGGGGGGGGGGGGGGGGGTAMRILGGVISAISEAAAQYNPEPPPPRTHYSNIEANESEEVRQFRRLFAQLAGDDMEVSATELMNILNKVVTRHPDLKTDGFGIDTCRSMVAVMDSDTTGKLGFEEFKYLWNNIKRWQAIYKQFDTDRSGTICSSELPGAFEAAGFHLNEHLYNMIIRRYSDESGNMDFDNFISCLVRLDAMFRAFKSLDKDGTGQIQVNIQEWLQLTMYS
Put plainly: Biochemical inhibition of calpain 1, continuous fluorescence (FRET substrate) assay. The note with it: mean, read-out: Human Calpain 1/NS1 IC50 (nM)_MEAN. The method in brief: (§1)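 Continuous FRET assay with 5-FAM/QXL520 peptide substrate in 50 mM Tris pH ~7.5, 100 mM NaCl, 1 mM DTT. Enzyme preincubated with inhibitor at 25C; reaction started with substrate plus CaCl2, read at 490/520 nm for 10 min. Rates from slopes over 1-5 min, IC50 from 4-parameter logistic fit.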

For the next data set, the target named is T2, Human Calpain 2/NS1 (Homo sapiens, UniProt P17655).
T2 sequence (P17655 1-700): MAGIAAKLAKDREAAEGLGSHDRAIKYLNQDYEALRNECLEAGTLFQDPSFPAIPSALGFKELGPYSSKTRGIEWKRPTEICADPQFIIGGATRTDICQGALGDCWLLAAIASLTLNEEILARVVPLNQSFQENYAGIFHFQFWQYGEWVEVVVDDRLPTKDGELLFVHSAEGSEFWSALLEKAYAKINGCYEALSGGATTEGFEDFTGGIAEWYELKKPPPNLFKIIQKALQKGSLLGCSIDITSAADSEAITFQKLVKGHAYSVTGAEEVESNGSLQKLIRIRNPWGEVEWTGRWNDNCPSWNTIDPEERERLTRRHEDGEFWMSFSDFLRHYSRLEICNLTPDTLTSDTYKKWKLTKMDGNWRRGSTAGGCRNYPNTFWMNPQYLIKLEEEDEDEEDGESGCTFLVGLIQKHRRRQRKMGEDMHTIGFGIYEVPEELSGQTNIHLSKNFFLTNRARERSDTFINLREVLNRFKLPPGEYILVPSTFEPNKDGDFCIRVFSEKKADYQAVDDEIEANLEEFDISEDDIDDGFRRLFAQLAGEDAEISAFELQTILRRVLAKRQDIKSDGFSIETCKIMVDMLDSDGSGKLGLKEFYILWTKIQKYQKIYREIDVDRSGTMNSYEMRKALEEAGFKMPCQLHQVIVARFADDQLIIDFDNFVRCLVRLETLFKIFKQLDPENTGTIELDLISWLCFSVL
T2 sequence (P04632 1-268 partner): T1 sequence (P04632 1-268 partner)
Briefly: Biochemical inhibition of calpain 2, continuous fluorescence (FRET substrate) assay. The note with it: mean, read-out: Human Calpain 2/NS1 IC50 (nM)_MEAN. The method in brief: as §1

Another data set addresses T3, Human Calpain 9/NS1 (Homo sapiens, UniProt O14815).
T3 sequence (O14815 1-690): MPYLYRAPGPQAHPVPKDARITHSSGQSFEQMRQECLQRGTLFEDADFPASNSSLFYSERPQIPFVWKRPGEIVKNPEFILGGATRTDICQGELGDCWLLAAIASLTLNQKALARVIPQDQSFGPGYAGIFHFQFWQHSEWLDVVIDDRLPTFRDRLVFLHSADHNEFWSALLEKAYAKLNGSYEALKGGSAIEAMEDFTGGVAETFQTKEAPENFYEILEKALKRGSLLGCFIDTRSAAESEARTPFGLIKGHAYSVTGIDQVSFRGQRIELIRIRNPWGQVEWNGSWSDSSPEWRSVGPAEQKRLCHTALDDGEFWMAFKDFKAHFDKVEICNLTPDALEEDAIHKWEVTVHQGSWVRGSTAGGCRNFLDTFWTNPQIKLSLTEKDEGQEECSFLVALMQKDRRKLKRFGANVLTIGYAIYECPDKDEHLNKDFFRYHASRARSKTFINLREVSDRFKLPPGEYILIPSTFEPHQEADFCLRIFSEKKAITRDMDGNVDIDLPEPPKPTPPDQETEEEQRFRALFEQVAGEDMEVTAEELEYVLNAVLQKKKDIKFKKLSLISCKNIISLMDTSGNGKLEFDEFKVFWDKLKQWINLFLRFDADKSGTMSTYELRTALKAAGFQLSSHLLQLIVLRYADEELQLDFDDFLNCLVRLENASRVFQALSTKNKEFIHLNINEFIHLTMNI
T3 sequence (P04632 1-268 partner): T1 sequence (P04632 1-268 partner)
Put plainly: Biochemical inhibition of calpain 9, continuous fluorescence (FRET substrate) assay. Particulars: mean, read-out: Human Calpain 9/NS1 IC50 (nM)_MEAN. The method in brief: as §1

The values that follow come from patent US11292801B2, “Calpain modulators and therapeutic uses thereof” (Blade Therapeutics, Inc., priority 2016, dated 2022).

Read-outs that look alike come from different tables or passages of the source.

As to `CCOC(=O)[C@@H]1CC=CCCCCCc2ccccc2C(=O)N1`, in data set [1] (from C=CCCCCCc1ccccc1C(=O)N[C@@H](CC=C)C(=O)OCC, Grubbs 2nd generation catalyst, DCM, 8.31 mM, 50.0 °C, 14.0 h), the ring closure, yield of all isomers turned out to be 18.1%.

`COC(=O)[C@@H]1Cc2ccc(cc2)OCC=CCOc2cccc(c2)-c2ccn(n2)-c2ncccc2C(=O)N1` yielded a ring closure, yield of all isomers in data set [1] (from C=CCOc1ccc(C[C@H](NC(=O)c2cccnc2-n2ccc(-c3cccc(OCC=C)c3)n2)C(=O)OC)cc1, Grubbs II, 1,2-dichloroethane, 8.35 mM, 90.0 °C, 48.0 h) of 47%.

For `COC(=O)[C@@H]1Cc2ccc(cc2)CC=CCc2cccc(c2)-c2ccn(n2)-c2ncccc2C(=O)N1`, in data set [1] (from C=CCc1ccc(C[C@H](NC(=O)c2cccnc2-n2ccc(-c3cccc(CC=C)c3)n2)C(=O)OC)cc1, Hoveyda-Grubbs catalyst 1st generation, DCE, 4.94 mM, 90.0 °C, 64.0 h), the ring closure, yield of all isomers was determined as 43.6%.

On to `COC(=O)[C@@H]1Cc2ccc(cc2)CC=CCc2ccc3nn(cc3c2)-c2ncccc2C(=O)N1`, for which, in data set [1] (from C=CCc1ccc(C[C@H](NC(=O)c2cccnc2-n2cc3cc(CC=C)ccc3n2)C(=O)OC)cc1, Zhan catalyst-1B, DCE, 3.09 mM, 90.0 °C, 14.0 h), the ring closure, yield of all isomers is 19.4%.

Compound `CON(C)C(=O)[C@@H]1CC=CCCOc2ccnc(c2)-c2ccccc2C(=O)N1` registered a ring closure, yield of all isomers in data set [1] (from C=CCCOc1ccnc(-c2ccccc2C(=O)N[C@@H](CC=C)C(=O)N(C)OC)c1, Zhan Catalyst-1B, DCE, 2.87 mM, 95.0 °C, 16.0 h) of 43.4%.

For `O=C(NC1CC1)C(=O)[C@@H]1Cc2ccc(cc2)OCCCCOc2cccc(c2)-c2ccn(n2)-c2ncccc2C(=O)N1` [Compound 72, N-cyclopropyl-2-oxo-2-((6S,E)-4-oxo-2^1H-9,14-dioxa-5-aza-3(2,3)-pyridina-2(3,1)-pyrazola-1(1,3),8(1,4)-dibenzenacyclotetradecaphane-6-yl)acetamide], the IC50 on Human Calpain 1/NS1, at Human Calpain 2/NS1 and on Human Calpain 9/NS1 was < 3000 nM throughout.

For `O=C[C@@H]1CCCCCCOc2ccnc(n2)-c2ccccc2C(=O)N1` [Compound 133, (S)-3-oxo-12-oxa-4-aza-1(2,4)-pyrimidina-2(1,2)-benzenacyclododecaphane-5-carbaldehyde], the IC50 at Human Calpain 1/NS1, on Human Calpain 2/NS1 and on Human Calpain 9/NS1 was < 3000 nM in each case.

As to `CON(C)C(=O)[C@@H]1C/C=C/CCOc2ccnc(n2)-c2ccccc2C(=O)N1` [Compound 135, (S,E)-N-methoxy-N-methyl-3-oxo-11-oxa-4-aza-1(2,4)-pyrimidina-2(1,2)-benzenacycloundecaphan-7-ene-5-carboxamide], the IC50 at Human Calpain 1/NS1, on Human Calpain 2/NS1 and at Human Calpain 9/NS1 was > 10000 nM each time.

Consider `COc1cccc(CCNC(=O)C(=O)C2CCCCOCCOCc3ccccc3C(=O)N2)c1` (centres unmarked) [Compound 88, N-(3-methoxyphenethyl)-2-oxo-2-(12-oxo-1,3,4,6,7,8,9,10,11,12-decahydrobenzo[f][1,4]dioxa[9]azacyclotetradecin-10-yl)acetamide], for which the IC50 at Human Calpain 1/NS1 was > 10000 nM; on Human Calpain 2/NS1 it was > 10000 nM; on Human Calpain 9/NS1, < 3000 nM.

Consider `O=C(NCc1ccccc1)C(=O)[C@@H]1C/C=C/COCCOCc2ccccc2C(=O)N1` [Compound 4, (S,E)-N-benzyl-2-oxo-2-(12-oxo-1,3,4,6,9,10,11,12-octahydrobenzo[f][1,4]dioxa[9]azacyclotetradecin-10-yl)acetamide], for which the IC50 on Human Calpain 1/NS1 was > 10000 nM; on Human Calpain 2/NS1 it was 3000 to 10000 nM; on Human Calpain 9/NS1, < 3000 nM.

Consider `O=C[C@@H]1CC=CCCCOCc2ccccc2C(=O)N1` [Compound 41, (S)-11-Oxo-1,3,4,5,8,9,10,11-octahydrobenzo[c][1]oxa[6]azacyclotridecine-9-carbaldehyde], for which the IC50 was > 10000 nM at Human Calpain 1/NS1, < 3000 nM on Human Calpain 2/NS1 and < 3000 nM at Human Calpain 9/NS1.

For the compound `O=C(NCc1ccccc1Cl)C(=O)C1CCCCOCCOCc2ccccc2C(=O)N1` (centres unmarked) [Compound 95, N-(2-chlorobenzyl)-2-oxo-2-(12-oxo-1,3,4,6,7,8,9,10,11,12-decahydrobenzo[f][1,4]dioxa[9]azacyclotetradecin-10-yl)acetamide], the IC50 was > 10000 nM on Human Calpain 1/NS1, > 10000 nM on Human Calpain 2/NS1 and < 3000 nM at Human Calpain 9/NS1.

Take `Cc1cc2n(n1)-c1cccc(c1)OCCCCC[C@@H](C(=O)C(N)=O)NC2=O` [Compound 141, (S)-2-oxo-2-(11-oxo-1^1H-3-oxa-10-aza-1(3,4)-pyrazola-2(1,3)-benzena-cycloundecaphane-9-yl)acetamide]: the IC50 on Human Calpain 1/NS1, on Human Calpain 2/NS1 and on Human Calpain 9/NS1 was < 3000 nM in each case.

With `O=C[C@@H]1CC=CCCOc2nccc(n2)-c2ccccc2C(=O)N1` [Compound 40, (S)-11-Oxo-3-oxa-10-aza-1(2,3)-pyridina-2(1,3)-benzena-cycloundecaphane-9-carbaldehyde], the IC50 at Human Calpain 1/NS1 was 3000 to 10000 nM; on Human Calpain 2/NS1, < 3000 nM; at Human Calpain 9/NS1 it was < 3000 nM.

In the case of `CC(C)(NC(=O)C(=O)C1CCCCOCCOCc2ccccc2C(=O)N1)c1cccnc1` (centres unmarked) [Compound 124, 2-Oxo-2-(12-oxo-1,3,4,6,7,8,9,10,11,12-decahydrobenzo[f][1,4]dioxa[9]azacyclotetradecin-10-yl)-N-(2-(pyridin-3-yl)propan-2-yl)acetamide], the IC50 at Human Calpain 1/NS1, at Human Calpain 2/NS1 and at Human Calpain 9/NS1 was > 10000 nM in each case.

On to `O=C[C@@H]1CC=CCCOc2ccnc(n2)-c2ccccc2C(=O)N1` [Compound 39, (S)-3-Oxo-11-oxa-4-aza-1(2,4)-pyrimidina-2(1,2)-benzenacyclo undecaphan-7-ene-5-carbaldehyde], for which the IC50 at Human Calpain 1/NS1 is 3000 to 10000 nM; on Human Calpain 2/NS1, < 3000 nM; at Human Calpain 9/NS1, < 3000 nM.

On to `O=C(NCc1cccnc1)C(=O)C1CCCCOCCOCc2ccccc2C(=O)N1` (centres unmarked) [Compound 103, 2-Oxo-2-(12-oxo-1,3,4,6,7,8,9,10,11,12-decahydrobenzo[f][1,4]dioxa[9]aza-cyclotetradecin-10-yl)-N-(pyridin-3-ylmethyl)acetamide], for which the IC50 is > 10000 nM at Human Calpain 1/NS1, > 10000 nM at Human Calpain 2/NS1 and < 3000 nM on Human Calpain 9/NS1.
